# Laboratory results published in patent publication US6777204B1, “Receptor protein and method for diagnosing inflammatory diseases by using the same” (Asahi Kasei Kabushiki Kaisha, priority 1998, dated 2004).
# How the values were obtained:
# [1] = biological target: T1, C5L2 protein-expressing CHO cells (Homo sapiens, UniProt Q9P296); experiment: Screening of a substance which antagonizes a ligand: chemotaxis assay of CHO cells transformed with C5L2 toward LPS-administered rat serum; format: cell-based; settings: NECA final concentration 100 μM in upper and lower compartments; LPS-administered rat serum as ligand source
# T1 construct: Myc (C); His (C); expressed in transfected cells; host or cells: CHO cells (ATCC CCL-61), Geneticin-selected
# Experimental: A chemotaxis Assay was Conducted with respect to the CHO cells transformed with C5L2. […] The chemotaxis of the cells in the absence of the antagonist candidate substance against a ligand was compared with that in the presence of the antagonist candidate substance against a ligand.
# C5L2 protein = biological target: T2, C5L2 protein (Homo sapiens, UniProt Q9P296); experiment: Ligand screening: binding of radio-labeled candidate compound to cell membrane fraction of 293 cells transformed with pcDNAC5L2 versus empty-vector control; settings: final concentration of CGS21680 100 nM; 37° C. for 30 minutes; supernatant counted by liquid scintillation
# T2 construct: Myc (C); His (C); expressed in transfected cells; host or cells: 293 cell line (ATCC CRL-1573), cell membrane fraction
# Experimental: The transformants were incubated for 48 to 72 hours. The incubated cells were washed with PBS and, then, 1 ml/plate of EDTA-containing PBS (EDTA concentration: 0.01%) was added to the washed cells. Using Cell Scraper-L (catalog number: MS-93300) (manufactured and sold by Sumitomo Bakelite Co., Ltd., Japan), the cells were scraped off from the plate and washed twice with PBS. The washed cells were suspended in 0.5 ml of 25 mM HEPES solution (pH 7.4) containing Complete™ Protease Inhibitor Cocktail Set (manufactured and sold by Boehringer Mannheim Corporation, Germany), and the resultant cell suspension was transferred to a microtube. […]
# The cell membrane fractions were prepared from the 293 cells (i.e., cells of 293 cell line) transformed with pcDNAC5L2 (i.e., C5L2 transformants) and the 293 cells transformed with pcDNA3.1/Myc-His(+)B vector (i.e., control) in substantially the same manner as in Example 5. […] Subsequently, the radioactivity of the prepared sample was measured by means of a scintillation counter (Beckman LS6000LL, manufactured and sold by Beckman Instruments, Inc., U.S.A.). The amount of the unbound candidate compound was determined from the measured radioactivity.
# T2 sequence (Q9P296 whole entry): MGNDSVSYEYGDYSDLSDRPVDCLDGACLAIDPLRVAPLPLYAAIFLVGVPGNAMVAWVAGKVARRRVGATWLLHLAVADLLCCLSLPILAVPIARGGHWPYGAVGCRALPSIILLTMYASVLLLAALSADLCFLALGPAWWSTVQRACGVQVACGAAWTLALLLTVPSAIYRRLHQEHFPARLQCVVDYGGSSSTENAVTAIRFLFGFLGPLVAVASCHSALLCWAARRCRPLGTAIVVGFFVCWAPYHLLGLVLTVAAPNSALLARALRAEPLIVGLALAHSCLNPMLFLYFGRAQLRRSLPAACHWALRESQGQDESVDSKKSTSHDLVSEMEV
# T1 sequence (Q9P296 whole entry): as above
smiles,measurement,setting,value
"CCNC(=O)[C@H]1O[C@@H](n2cnc3c(N)ncnc32)[C@H](O)[C@@H]1O [NECA, 5′-(N-ethylcarboxyamide)adenosine]",chemotaxis of the cells in the presence versus absence of the antagonist candidate substance,[1],no difference was observed
CCNC(=O)[C@H]1O[C@@H](n2cnc3c(N)nc(NCCc4ccc(CCC(=O)O)cc4)nc32)[C@H](O)[C@@H]1O [CGS21680],"radioactivity of unbound candidate compound, C5L2 transformants versus control cells",C5L2 protein,no difference in the radioactivity was observed
